Measured values taken from the kinase profiling compilation of Christmann-Franck et al. (2016).

Key:
Assay in all cases: KINOMEscan competition binding
Details in all cases: compound 10.0 µM
BLK (human) = BLK (human) (UniProt P51451)
BMPR1B (human) = BMPR1B (human) (UniProt O00238)
BRSK1 (human) = BRSK1 (human) (UniProt Q8TDC3)
BRSK2 (human) = BRSK2 (human) (UniProt Q8IWQ3)
CAMK1D (human) = CAMK1D (human) (UniProt Q8IU85)
CDC42BPB (human) = CDC42BPB (human) (UniProt Q9Y5S2)
CDK15 (human) = CDK15 (human) (UniProt Q96Q40)
CLK1 (human) = CLK1 (human) (UniProt P49759)
CSNK1G2 (human) = CSNK1G2 (human) (UniProt P78368)
CSNK2A1 (human) = CSNK2A1 (human) (UniProt P68400)
DCLK2 (human) = DCLK2 (human) (UniProt Q8N568)
EPHA2 (human) = EPHA2 (human) (UniProt P29317)
EPHA7 (human) = EPHA7 (human) (UniProt Q15375)
EPHB1 (human) = EPHB1 (human) (UniProt P54762)
EPHB3 (human) = EPHB3 (human) (UniProt P54753)
FLT1 (human) = FLT1 (human) (UniProt P17948)
ITK (human) = ITK (human) (UniProt Q08881)
MAPK3 (human) = MAPK3 (human) (UniProt P27361)
MAPK6 (human) = MAPK6 (human) (UniProt Q16659)
MAPK9 (human) = MAPK9 (human) (UniProt P45984)
MELK (human) = MELK (human) (UniProt Q14680)
NEK7 (human) = NEK7 (human) (UniProt Q8TDX7)
NEK9 (human) = NEK9 (human) (UniProt Q8TD19)
PHKG1 (human) = PHKG1 (human) (UniProt Q16816)
PRKAA1 (human) = PRKAA1 (human) (UniProt Q13131)
PRKCQ (human) = PRKCQ (human) (UniProt Q04759)
RIOK1 (human) = RIOK1 (human) (UniProt Q9BRS2)
RIOK2 (human) = RIOK2 (human) (UniProt Q9BVS4)
RIPK1 (human) = RIPK1 (human) (UniProt Q13546)
RPS6KA2 KD1 (human) = RPS6KA2 KD1 (human) (UniProt Q15349)
SLK (human) = SLK (human) (UniProt Q9H2G2)
SRC (human) = SRC (human) (UniProt P12931)
SRMS (human) = SRMS (human) (UniProt Q9H3Y6)
STK25 (human) = STK25 (human) (UniProt O00506)
STK33 (human) = STK33 (human) (UniProt Q9BYT3)
TEC (human) = TEC (human) (UniProt P42680)
ULK1 (human) = ULK1 (human) (UniProt O75385)
ULK3 (human) = ULK3 (human) (UniProt Q6PHR2)
WEE1 (human) = WEE1 (human) (UniProt P30291)
ZAP70 (human) = ZAP70 (human) (UniProt P43403)

Chain of RIOK1 (human) (Q9BRS2 whole entry, looked up): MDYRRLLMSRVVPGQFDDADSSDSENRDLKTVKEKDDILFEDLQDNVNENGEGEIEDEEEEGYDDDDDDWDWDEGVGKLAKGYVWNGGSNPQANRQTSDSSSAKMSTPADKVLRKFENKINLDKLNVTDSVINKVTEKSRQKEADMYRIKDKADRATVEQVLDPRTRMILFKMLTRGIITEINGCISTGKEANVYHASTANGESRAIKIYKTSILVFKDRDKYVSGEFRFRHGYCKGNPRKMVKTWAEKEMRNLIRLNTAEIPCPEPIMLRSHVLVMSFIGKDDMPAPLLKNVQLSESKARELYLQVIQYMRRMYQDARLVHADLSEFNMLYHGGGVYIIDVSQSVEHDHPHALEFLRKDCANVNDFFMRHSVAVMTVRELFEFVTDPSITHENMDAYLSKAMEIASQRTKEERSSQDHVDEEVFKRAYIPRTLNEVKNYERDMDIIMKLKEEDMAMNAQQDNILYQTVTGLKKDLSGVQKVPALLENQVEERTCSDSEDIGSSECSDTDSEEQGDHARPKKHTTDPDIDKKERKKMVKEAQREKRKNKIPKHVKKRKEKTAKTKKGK
Chain of FLT1 (human) (P17948 whole entry, looked up): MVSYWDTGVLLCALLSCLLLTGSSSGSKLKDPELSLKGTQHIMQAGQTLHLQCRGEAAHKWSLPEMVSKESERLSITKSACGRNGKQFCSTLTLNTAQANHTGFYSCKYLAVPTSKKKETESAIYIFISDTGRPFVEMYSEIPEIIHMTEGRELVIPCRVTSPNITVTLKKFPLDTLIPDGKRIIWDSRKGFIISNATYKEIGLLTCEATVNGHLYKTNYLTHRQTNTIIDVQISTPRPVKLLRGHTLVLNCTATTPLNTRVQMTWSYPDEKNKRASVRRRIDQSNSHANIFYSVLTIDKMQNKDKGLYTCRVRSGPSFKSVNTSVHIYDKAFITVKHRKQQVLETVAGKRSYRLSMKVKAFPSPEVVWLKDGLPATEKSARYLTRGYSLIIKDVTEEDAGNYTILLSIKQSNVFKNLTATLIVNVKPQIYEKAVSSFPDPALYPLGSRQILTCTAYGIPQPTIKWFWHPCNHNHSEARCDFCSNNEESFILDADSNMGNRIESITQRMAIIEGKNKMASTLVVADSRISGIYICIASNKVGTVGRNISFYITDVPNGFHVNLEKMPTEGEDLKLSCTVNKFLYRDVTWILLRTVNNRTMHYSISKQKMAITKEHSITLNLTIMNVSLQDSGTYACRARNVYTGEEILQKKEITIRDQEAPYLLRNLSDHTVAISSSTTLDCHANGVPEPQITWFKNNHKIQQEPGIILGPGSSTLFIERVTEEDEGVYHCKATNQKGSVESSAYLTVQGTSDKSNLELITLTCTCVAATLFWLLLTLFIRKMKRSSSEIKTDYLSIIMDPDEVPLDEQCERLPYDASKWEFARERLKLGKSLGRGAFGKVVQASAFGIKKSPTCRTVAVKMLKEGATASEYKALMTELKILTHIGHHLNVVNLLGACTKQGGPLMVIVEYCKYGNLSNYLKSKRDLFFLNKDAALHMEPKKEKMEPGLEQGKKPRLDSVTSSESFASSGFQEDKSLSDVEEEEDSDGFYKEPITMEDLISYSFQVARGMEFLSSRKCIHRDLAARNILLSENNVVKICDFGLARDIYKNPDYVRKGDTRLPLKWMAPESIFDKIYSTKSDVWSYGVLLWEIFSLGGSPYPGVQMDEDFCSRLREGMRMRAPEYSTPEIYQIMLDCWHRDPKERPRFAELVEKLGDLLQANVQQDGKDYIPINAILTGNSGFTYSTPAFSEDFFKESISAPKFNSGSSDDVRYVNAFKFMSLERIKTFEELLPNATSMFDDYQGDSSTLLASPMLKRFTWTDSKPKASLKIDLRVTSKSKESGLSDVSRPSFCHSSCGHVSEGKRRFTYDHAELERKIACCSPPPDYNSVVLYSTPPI
Chain of STK25 (human) (O00506 whole entry, looked up): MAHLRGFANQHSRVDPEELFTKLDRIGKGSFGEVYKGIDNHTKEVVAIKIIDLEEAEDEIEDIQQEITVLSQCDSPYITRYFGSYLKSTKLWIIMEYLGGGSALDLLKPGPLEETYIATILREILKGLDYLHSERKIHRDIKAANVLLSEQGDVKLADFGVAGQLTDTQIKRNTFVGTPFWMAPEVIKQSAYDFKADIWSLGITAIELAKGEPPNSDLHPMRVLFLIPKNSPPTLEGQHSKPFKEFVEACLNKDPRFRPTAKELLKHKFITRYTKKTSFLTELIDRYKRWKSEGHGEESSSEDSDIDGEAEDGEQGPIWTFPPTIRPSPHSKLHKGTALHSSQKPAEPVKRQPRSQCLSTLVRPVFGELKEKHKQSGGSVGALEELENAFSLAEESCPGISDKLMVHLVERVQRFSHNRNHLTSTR
Chain of SRC (human) (P12931 whole entry, looked up): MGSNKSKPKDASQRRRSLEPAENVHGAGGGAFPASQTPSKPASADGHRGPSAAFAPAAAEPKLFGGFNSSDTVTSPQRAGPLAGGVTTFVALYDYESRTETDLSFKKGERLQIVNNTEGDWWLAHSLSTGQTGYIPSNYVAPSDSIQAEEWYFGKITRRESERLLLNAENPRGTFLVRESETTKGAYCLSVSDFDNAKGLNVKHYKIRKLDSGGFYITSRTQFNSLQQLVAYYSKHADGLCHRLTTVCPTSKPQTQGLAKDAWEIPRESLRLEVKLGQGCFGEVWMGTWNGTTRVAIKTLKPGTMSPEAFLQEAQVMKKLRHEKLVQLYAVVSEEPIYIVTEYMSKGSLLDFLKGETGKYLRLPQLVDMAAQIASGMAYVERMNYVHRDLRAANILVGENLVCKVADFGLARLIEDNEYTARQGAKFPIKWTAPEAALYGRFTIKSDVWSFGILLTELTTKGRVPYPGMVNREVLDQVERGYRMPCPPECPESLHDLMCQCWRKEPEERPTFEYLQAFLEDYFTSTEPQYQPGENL
Chain of BLK (human) (P51451 whole entry, looked up): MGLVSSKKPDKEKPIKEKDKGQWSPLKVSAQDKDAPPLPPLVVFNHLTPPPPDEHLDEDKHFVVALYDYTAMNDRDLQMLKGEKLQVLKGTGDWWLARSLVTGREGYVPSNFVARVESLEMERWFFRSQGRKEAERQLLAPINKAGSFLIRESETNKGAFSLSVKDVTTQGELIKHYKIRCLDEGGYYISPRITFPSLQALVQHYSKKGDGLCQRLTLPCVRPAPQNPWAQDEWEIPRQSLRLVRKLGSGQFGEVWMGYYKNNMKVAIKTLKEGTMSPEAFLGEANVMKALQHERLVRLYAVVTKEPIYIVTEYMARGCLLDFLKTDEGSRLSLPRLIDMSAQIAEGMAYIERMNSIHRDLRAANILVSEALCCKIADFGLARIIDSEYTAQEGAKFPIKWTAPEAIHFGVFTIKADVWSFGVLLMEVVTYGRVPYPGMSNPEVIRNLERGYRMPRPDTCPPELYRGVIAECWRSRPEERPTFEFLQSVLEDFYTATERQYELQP
Chain of ULK1 (human) (O75385 whole entry, looked up): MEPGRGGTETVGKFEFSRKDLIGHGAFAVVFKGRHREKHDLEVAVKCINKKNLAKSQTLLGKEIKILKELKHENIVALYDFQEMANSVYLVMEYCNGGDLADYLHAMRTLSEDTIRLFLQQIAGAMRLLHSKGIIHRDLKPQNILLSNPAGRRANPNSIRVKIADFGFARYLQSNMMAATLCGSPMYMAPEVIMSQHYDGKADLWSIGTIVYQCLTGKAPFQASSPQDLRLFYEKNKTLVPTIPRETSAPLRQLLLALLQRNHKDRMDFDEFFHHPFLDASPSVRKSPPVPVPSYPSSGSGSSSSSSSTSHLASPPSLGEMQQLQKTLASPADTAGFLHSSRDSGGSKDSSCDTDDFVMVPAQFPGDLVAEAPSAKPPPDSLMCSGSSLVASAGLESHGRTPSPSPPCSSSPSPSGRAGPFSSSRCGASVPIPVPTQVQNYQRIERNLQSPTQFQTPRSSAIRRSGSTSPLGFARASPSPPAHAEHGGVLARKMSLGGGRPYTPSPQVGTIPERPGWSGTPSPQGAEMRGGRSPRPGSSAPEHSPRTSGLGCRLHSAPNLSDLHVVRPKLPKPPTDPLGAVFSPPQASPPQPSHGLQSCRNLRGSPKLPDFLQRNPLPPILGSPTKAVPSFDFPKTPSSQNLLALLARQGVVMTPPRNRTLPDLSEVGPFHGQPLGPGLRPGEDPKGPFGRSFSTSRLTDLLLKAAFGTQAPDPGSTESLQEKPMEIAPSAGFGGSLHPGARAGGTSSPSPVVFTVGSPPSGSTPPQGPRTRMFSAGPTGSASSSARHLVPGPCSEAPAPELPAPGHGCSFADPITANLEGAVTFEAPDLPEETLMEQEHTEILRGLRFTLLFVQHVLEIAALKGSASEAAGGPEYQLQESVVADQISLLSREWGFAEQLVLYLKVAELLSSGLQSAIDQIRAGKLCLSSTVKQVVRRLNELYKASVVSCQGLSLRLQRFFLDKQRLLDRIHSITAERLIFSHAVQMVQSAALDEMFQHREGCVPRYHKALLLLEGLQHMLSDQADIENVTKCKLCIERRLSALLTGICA
Chain of RIOK2 (human) (Q9BVS4 whole entry, looked up): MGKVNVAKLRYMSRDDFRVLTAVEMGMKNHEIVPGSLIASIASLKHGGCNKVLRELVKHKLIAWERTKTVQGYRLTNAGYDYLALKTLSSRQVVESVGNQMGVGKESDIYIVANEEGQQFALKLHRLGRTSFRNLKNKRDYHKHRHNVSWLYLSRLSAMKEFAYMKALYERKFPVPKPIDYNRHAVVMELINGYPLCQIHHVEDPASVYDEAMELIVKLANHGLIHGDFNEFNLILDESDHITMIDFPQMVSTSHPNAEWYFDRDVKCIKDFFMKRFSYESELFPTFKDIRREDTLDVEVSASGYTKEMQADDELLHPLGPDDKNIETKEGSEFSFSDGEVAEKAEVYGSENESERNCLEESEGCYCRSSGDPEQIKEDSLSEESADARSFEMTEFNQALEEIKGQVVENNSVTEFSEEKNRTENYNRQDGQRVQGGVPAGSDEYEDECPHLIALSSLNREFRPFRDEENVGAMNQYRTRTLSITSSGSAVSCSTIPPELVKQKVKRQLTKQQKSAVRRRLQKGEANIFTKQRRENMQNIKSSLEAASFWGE

SMILES	kinase still bound, per cent of control (BLK (human)) [%]	kinase still bound, per cent of control (BMPR1B (human)) [%]	kinase still bound, per cent of control (BRSK1 (human)) [%]	kinase still bound, per cent of control (BRSK2 (human)) [%]	kinase still bound, per cent of control (CAMK1D (human)) [%]	kinase still bound, per cent of control (CDC42BPB (human)) [%]	kinase still bound, per cent of control (CDK15 (human)) [%]	kinase still bound, per cent of control (CLK1 (human)) [%]	kinase still bound, per cent of control (CSNK1G2 (human)) [%]	kinase still bound, per cent of control (CSNK2A1 (human)) [%]	kinase still bound, per cent of control (DCLK2 (human)) [%]	kinase still bound, per cent of control (EPHA2 (human)) [%]	kinase still bound, per cent of control (EPHA7 (human)) [%]	kinase still bound, per cent of control (EPHB1 (human)) [%]	kinase still bound, per cent of control (EPHB3 (human)) [%]	kinase still bound, per cent of control (FLT1 (human)) [%]	kinase still bound, per cent of control (ITK (human)) [%]	kinase still bound, per cent of control (MAPK3 (human)) [%]	kinase still bound, per cent of control (MAPK6 (human)) [%]	kinase still bound, per cent of control (MAPK9 (human)) [%]	further results
CN(C)C/C=C/C(=O)Nc1cccc(Nc2ncc3c(n2)N(C)c2ccccc2C(=O)N3C)c1	0.7	84	14	4.2	59	100	84	50	69	100	0.5	82	100	90	88	83	58	100	46	100	kinase still bound, per cent of control (MELK (human)): 43%; kinase still bound, per cent of control (NEK7 (human)): 100%; kinase still bound, per cent of control (NEK9 (human)): 93%; kinase still bound, per cent of control (PHKG1 (human)): 69%; kinase still bound, per cent of control (PRKAA1 (human)): 0.45%; kinase still bound, per cent of control (PRKCQ (human)): 83%; kinase still bound, per cent of control (RIOK1 (human)): 18%; kinase still bound, per cent of control (RIOK2 (human)): 79%; kinase still bound, per cent of control (RIPK1 (human)): 28%; kinase still bound, per cent of control (RPS6KA2 KD1 (human)): 50%; kinase still bound, per cent of control (SLK (human)): 7.3%; kinase still bound, per cent of control (SRC (human)): 0.7%; kinase still bound, per cent of control (SRMS (human)): 57%; kinase still bound, per cent of control (STK25 (human)): 66%; kinase still bound, per cent of control (STK33 (human)): 8.9%; kinase still bound, per cent of control (TEC (human)): 97%; kinase still bound, per cent of control (ULK1 (human)): 0.15%; kinase still bound, per cent of control (ULK3 (human)): 45%; kinase still bound, per cent of control (WEE1 (human)): 100%; kinase still bound, per cent of control (ZAP70 (human)): 60%
COc1cc(C(=O)NC2CCN(C)CC2)ccc1Nc1ncc2c(n1)N(C1CCCC1)C(C)CC(=O)N2C (stereo not given)	100	100	100	100	17	100	100	18	100	100	19	100	100	100	100	100	100	100	100	100	kinase still bound, per cent of control (MELK (human)): 100%; kinase still bound, per cent of control (NEK7 (human)): 100%; kinase still bound, per cent of control (NEK9 (human)): 100%; kinase still bound, per cent of control (PHKG1 (human)): 100%; kinase still bound, per cent of control (PRKAA1 (human)): 100%; kinase still bound, per cent of control (PRKCQ (human)): 100%; kinase still bound, per cent of control (RIOK1 (human)): 100%; kinase still bound, per cent of control (RIOK2 (human)): 100%; kinase still bound, per cent of control (RIPK1 (human)): 100%; kinase still bound, per cent of control (RPS6KA2 KD1 (human)): 100%; kinase still bound, per cent of control (SLK (human)): 1.4%; kinase still bound, per cent of control (SRC (human)): 100%; kinase still bound, per cent of control (SRMS (human)): 100%; kinase still bound, per cent of control (STK25 (human)): 100%; kinase still bound, per cent of control (STK33 (human)): 3.6%; kinase still bound, per cent of control (TEC (human)): 100%; kinase still bound, per cent of control (ULK1 (human)): 100%; kinase still bound, per cent of control (ULK3 (human)): 100%; kinase still bound, per cent of control (WEE1 (human)): 100%; kinase still bound, per cent of control (ZAP70 (human)): 100%
C[C@@H](Oc1cc(-n2cnc3ccc(CN4CCN(C)CC4)cc32)sc1C(N)=O)c1ccccc1C(F)(F)F	100	100	42	52	82	100	67	36	97	13	100	92	83	99	100	100	89	100	100	100	kinase still bound, per cent of control (MELK (human)): 49%; kinase still bound, per cent of control (NEK7 (human)): 66%; kinase still bound, per cent of control (NEK9 (human)): 10%; kinase still bound, per cent of control (PHKG1 (human)): 94%; kinase still bound, per cent of control (PRKAA1 (human)): 57%; kinase still bound, per cent of control (PRKCQ (human)): 47%; kinase still bound, per cent of control (RIOK1 (human)): 4.4%; kinase still bound, per cent of control (RIOK2 (human)): 65%; kinase still bound, per cent of control (RIPK1 (human)): 100%; kinase still bound, per cent of control (RPS6KA2 KD1 (human)): 4%; kinase still bound, per cent of control (SLK (human)): 0.25%; kinase still bound, per cent of control (SRC (human)): 100%; kinase still bound, per cent of control (SRMS (human)): 74%; kinase still bound, per cent of control (STK25 (human)): 83%; kinase still bound, per cent of control (STK33 (human)): 75%; kinase still bound, per cent of control (TEC (human)): 91%; kinase still bound, per cent of control (ULK1 (human)): 41%; kinase still bound, per cent of control (ULK3 (human)): 100%; kinase still bound, per cent of control (WEE1 (human)): 100%; kinase still bound, per cent of control (ZAP70 (human)): 69%
